PubChem BioAssay AID624167 (Sanford-Burnham Center for Chemical Genomics, 2012)
pIC50: −log10 of the molar value. Calls of active or inactive are those of the source.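 How the source made its calls: active means mean IC50 for reducing PEG3 promoter reporter signal at or below a set limit, with IC50 above the limit in both counter screens; inactive means the rest, including counter screen hits.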

Tests used:
PEG-3 [1] = assay: Peg3 promoter luciferase inhibitors, potency, dose response, cell-based, HeLa, CREF/GAPDH counter-screen panel (AID 624167); conditions: HeLa PEG-Prom luciferase reporter, overnight, CREF/GAPDH counter-screens
PEG-3 [2] = biological target: PEG-3 (UniProt Q6IN02); assay: as above; conditions: HeLa PEG-Prom luciferase reporter, overnight, CREF/GAPDH counter-screens, mean of runs
[3] = run 1, dose range 1, individual replicate IC50 per panel
[4] = run 2, dose range 1, individual replicate IC50 per panel

Sequence of PEG-3 (UniProt Q6IN02) (Q6IN02 whole entry, looked up): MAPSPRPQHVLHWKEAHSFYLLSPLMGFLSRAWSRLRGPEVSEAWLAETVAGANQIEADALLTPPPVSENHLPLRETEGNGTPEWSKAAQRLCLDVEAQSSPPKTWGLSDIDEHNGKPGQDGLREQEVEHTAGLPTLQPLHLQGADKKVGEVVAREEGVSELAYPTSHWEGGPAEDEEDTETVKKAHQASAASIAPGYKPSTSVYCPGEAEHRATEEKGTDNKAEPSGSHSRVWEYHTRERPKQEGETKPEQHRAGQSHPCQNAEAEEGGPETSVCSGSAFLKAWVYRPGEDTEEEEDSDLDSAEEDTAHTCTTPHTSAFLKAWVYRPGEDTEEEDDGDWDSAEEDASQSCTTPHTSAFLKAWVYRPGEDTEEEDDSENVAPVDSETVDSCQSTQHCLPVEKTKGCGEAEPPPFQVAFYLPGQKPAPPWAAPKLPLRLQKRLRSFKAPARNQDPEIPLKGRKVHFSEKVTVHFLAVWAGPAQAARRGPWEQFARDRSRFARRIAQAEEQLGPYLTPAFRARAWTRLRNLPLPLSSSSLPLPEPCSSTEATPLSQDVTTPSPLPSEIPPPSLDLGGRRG

## NC(=O)c1nsc(C(=O)N(c2ccccc2F)C(C(=O)NCc2ccc(F)cc2)c2ccc(O)cc2)c1N (centres undefined)
PEG-3 [1]; [3]
  pIC50: 4.52
PEG-3 [1]; [4]
  pIC50: 4.78
PEG-3 [2]
  IC50: inactive

## CC(C)n1nc(C(=O)Oc2cc(Cl)ccc2Cl)c2ccccc2c1=O
PEG-3 [1]; [3]
  pIC50: 4.18
PEG-3 [1]; [4]
  pIC50: < 4.00
PEG-3 [2]
  IC50: inactive

## O=[N+]([O-])c1cc(Cl)cc(/C=N\Nc2ccccn2)c1O
PEG-3 [1]; [3]
  pIC50: 5.86
PEG-3 [1]; [4]
  pIC50: < 4.00
PEG-3 [2]
  IC50: inactive

## COc1ccc(C(O)(CCC(C)C)C(CN2CCOCC2)c2ccccc2)cc1 (centres undefined)
PEG-3 [1]; [3]
  pIC50: 4.52
PEG-3 [1]; [4]
  pIC50: 4.52
PEG-3 [2]
  IC50: inactive

## O=S(=O)(c1cccc(F)c1)N1CCN(c2nc(-c3cccnc3)nc3ccccc23)CC1
PEG-3 [1]; [3]
  pIC50: 4.99
PEG-3 [1]; [4]
  pIC50: 4.80
PEG-3 [2]
  pIC50: 4.89

## O=C(CCl)N1N=C(c2ccco2)CC1c1cccs1 (centres undefined)
PEG-3 [1]; [3]
  pIC50: 4.62
PEG-3 [1]; [4]
  pIC50: 4.52
PEG-3 [2]
  IC50: inactive

## COc1ccc(C[C@H]2CN3C(=NC[C@@H]3Cc3ccc(O)cc3)N2C[C@H](C)NC(=O)c2ccc(C)c(Br)c2)cc1
PEG-3 [1]; [3]
  pIC50: 4.64
PEG-3 [1]; [4]
  pIC50: 4.68
PEG-3 [2]
  IC50: inactive

## Cc1ccc2sc(N(CCCN(C)C)C(=O)c3ccc(S(=O)(=O)N(C)Cc4ccccc4)cc3)nc2c1C
PEG-3 [1]; [3]
  pIC50: 4.72
PEG-3 [1]; [4]
  pIC50: 5.07
PEG-3 [2]
  pIC50: 4.86

## CCC(=O)NC(c1cccs1)c1cc([N+](=O)[O-])c2cccnc2c1O (centres undefined)
PEG-3 [1]; [3]
  pIC50: 4.91
PEG-3 [1]; [4]
  pIC50: 4.93
PEG-3 [2]
  pIC50: 4.92

## CC(C)CC(N)c1csc(Nc2ccc(C(=O)N(C)Cc3ccccc3)cn2)n1 (centres undefined)
PEG-3 [1]; [3]
  pIC50: 4.85
PEG-3 [1]; [4]
  pIC50: 4.54
PEG-3 [2]
  IC50: inactive

## CC(C)CC1C(=O)N(Cc2cn(CCC3OCCO3)nn2)CCS(=O)(=O)N1Cc1ccc(-c2ccc(F)cc2)cc1 (centres undefined)
PEG-3 [1]; [3]
  pIC50: 4.50
PEG-3 [1]; [4]
  pIC50: 4.48
PEG-3 [2]
  IC50: inactive

## CC1=C(CC[C@@H](C)CO)OC2CC3C4CCC5CC(O)CCC5(C)C4CC(=O)C3(C)C12 (some centres undefined)
PEG-3 [1]; [3]
  pIC50: 4.61
PEG-3 [1]; [4]
  pIC50: 4.19
PEG-3 [2]
  IC50: inactive

## O=c1c2ccccc2oc2cc(C#CC3(O)CCCCC3)ccc12
PEG-3 [1]; [3]
  pIC50: 4.56
PEG-3 [1]; [4]
  pIC50: < 4.00
PEG-3 [2]
  IC50: inactive

## O=C(/C=C/c1cc(Br)ccc1O)c1ccco1
PEG-3 [1]; [3]
  pIC50: 4.79
PEG-3 [1]; [4]
  pIC50: 5.07
PEG-3 [2]
  pIC50: 4.91

## CN(C)c1ccc(/C=N/NC(=O)c2nnn(-c3nonc3N)c2COc2ccc(F)cc2)cc1
PEG-3 [1]; [3]
  pIC50: < 4.00
PEG-3 [1]; [4]
  pIC50: < 4.00
PEG-3 [2]
  IC50: > 100 µM (inactive)

## Cn1nnnc1Sc1ncnc2scc(-c3ccc4c(c3)OCO4)c12
PEG-3 [1]; [3]
  pIC50: 4.46
PEG-3 [1]; [4]
  pIC50: 4.27
PEG-3 [2]
  IC50: inactive

## COc1cc(C(=O)/C=C/c2cccnc2)c([N+](=O)[O-])cc1OC
PEG-3 [1]; [3]
  pIC50: 4.71
PEG-3 [1]; [4]
  pIC50: 4.76
PEG-3 [2]
  pIC50: 4.74

## COc1ccc(C(C(=O)NCC2CCCO2)N(Cc2cccs2)C(=O)c2snc(C(N)=O)c2N)cc1 (centres undefined)
PEG-3 [1]; [3]
  pIC50: < 4.00
PEG-3 [1]; [4]
  pIC50: 5.03
PEG-3 [2]
  IC50: inactive

## COC(=O)c1cc(=O)n(Cc2ccco2)c(=Nc2ccc(F)cc2)s1
PEG-3 [1]; [3]
  pIC50: 4.75
PEG-3 [1]; [4]
  pIC50: 4.75
PEG-3 [2]
  pIC50: 4.75

## O=C1NC(=S)NC(=O)C1=Cc1cccn1-c1ccc(O)cc1
PEG-3 [1]; [3]
  pIC50: 4.75
PEG-3 [1]; [4]
  pIC50: 4.83
PEG-3 [2]
  pIC50: 4.79

## COc1ccccc1CNC(=O)c1c(N)n(CCCN2CCOCC2)c2nc3ccccc3nc12
PEG-3 [1]; [3]
  pIC50: 4.74
PEG-3 [1]; [4]
  pIC50: 5.01
PEG-3 [2]
  pIC50: 4.85

## O=C(NC1=C(NC2CCS(=O)(=O)C2)C(=O)c2ccccc2C1=O)c1ccccc1 (centres undefined)
PEG-3 [1]; [3]
  pIC50: 4.72
PEG-3 [1]; [4]
  pIC50: 4.73
PEG-3 [2]
  pIC50: 4.72

## COc1ccc(-c2cc(C(=O)N3CCN(c4ncccn4)CC3)c3ccccc3n2)c(OC)c1
PEG-3 [1]; [3]
  pIC50: 4.41
PEG-3 [1]; [4]
  pIC50: 4.01
PEG-3 [2]
  IC50: inactive

## Cc1ccc(-c2cc(C(=O)Nc3nccs3)c3ccccc3n2)c(C)c1
PEG-3 [1]; [3]
  pIC50: 4.49
PEG-3 [1]; [4]
  pIC50: < 4.00
PEG-3 [2]
  IC50: inactive

## O=C(Nc1cccc(S(=O)(=O)N2CCOCC2)c1)c1ccc2c(=O)n3c(nc2c1)CCCCC3
PEG-3 [1]; [3]
  pIC50: 4.60
PEG-3 [1]; [4]
  pIC50: 4.37
PEG-3 [2]
  IC50: inactive

## c1ccc(CCCNCCCn2cnc3c(OCc4ccccc4)ncnc32)cc1
PEG-3 [1]; [3]
  pIC50: 4.46
PEG-3 [1]; [4]
  pIC50: 4.71
PEG-3 [2]
  IC50: inactive

## Cc1ccc(C2=NC(=O)/C(=C/c3cc(O)c(O)c(Br)c3)S2)cc1
PEG-3 [1]; [3]
  pIC50: 4.77
PEG-3 [1]; [4]
  pIC50: 4.57
PEG-3 [2]
  IC50: inactive

## COCCn1c(C)cc(C(=O)COC(=O)c2ccccc2Br)c1C
PEG-3 [1]; [3]
  pIC50: 4.49
PEG-3 [1]; [4]
  pIC50: 4.27
PEG-3 [2]
  IC50: inactive

## Cc1ccc(-n2cc(-c3ccccc3)c3c(N4CCOCC4)ncnc32)cc1
PEG-3 [1]; [3]
  pIC50: 4.97
PEG-3 [1]; [4]
  pIC50: 4.59
PEG-3 [2]
  pIC50: 4.74

## COC(=O)c1ccc(OCC2c3cc(OC)c(OC)cc3CCN2C(=O)c2ccco2)cc1 (centres undefined)
PEG-3 [1]; [3]
  pIC50: 4.60
PEG-3 [1]; [4]
  pIC50: 4.87
PEG-3 [2]
  pIC50: 4.71

## O=C(Cn1ncc(Cl)c(Cl)c1=O)N1CCN(Cc2ccccc2)CC1
PEG-3 [1]; [3]
  pIC50: 4.71
PEG-3 [1]; [4]
  pIC50: 5.07
PEG-3 [2]
  pIC50: 4.85

## C[C@@H]1O[C@@H](O[C@@H]2C=C3CCC4C(CC[C@]5(C)[C@@H](c6ccc(=O)oc6)CC[C@]45O)[C@@]3(C)CC2)[C@H](O)[C@H](O)[C@H]1O (some centres undefined)
PEG-3 [1]; [3]
  pIC50: 6.15
PEG-3 [1]; [4]
  pIC50: > 6.70
PEG-3 [2]
  pIC50: 6.35

## COc1cccc(C2CC3C(=O)C=CC2N3Cc2ccccc2)c1 (centres undefined)
PEG-3 [1]; [3]
  pIC50: 4.92
PEG-3 [1]; [4]
  pIC50: 4.85
PEG-3 [2]
  pIC50: 4.89

## Cc1cnc(NC(=O)C2CC(=O)N(c3cccc(Cl)c3)C2)s1 (centres undefined)
PEG-3 [1]; [3]
  pIC50: 4.63
PEG-3 [1]; [4]
  pIC50: 5.42
PEG-3 [2]
  pIC50: 4.87

## CN1Cc2c(N3CCOCC3)nc3sc(C(=O)c4ccc(Br)cc4)c(N)c3c2CC1(C)C
PEG-3 [1]; [3]
  pIC50: 4.72
PEG-3 [1]; [4]
  pIC50: 4.93
PEG-3 [2]
  pIC50: 4.82

## CC(=O)OCCNc1cc(SCc2ccco2)c2nonc2c1[N+](=O)[O-]
PEG-3 [1]; [3]
  pIC50: 4.57
PEG-3 [1]; [4]
  pIC50: 4.69
PEG-3 [2]
  IC50: inactive

## COc1ccc2sc(-c3ccc(S(C)(=O)=O)cc3)c(C#Cc3cncn3C)c2c1
PEG-3 [1]; [3]
  pIC50: 4.67
PEG-3 [1]; [4]
  pIC50: < 4.00
PEG-3 [2]
  IC50: inactive

## COC(=O)c1ccccc1-c1ccc(/C=N/Nc2nc(N3CCCC3)nc(N3CCCC3)n2)o1
PEG-3 [1]; [3]
  pIC50: 4.57
PEG-3 [1]; [4]
  pIC50: 4.46
PEG-3 [2]
  IC50: inactive

## CC(=O)NC(c1ccc(C)cc1)c1cc(Cl)c2cccnc2c1O (centres undefined)
PEG-3 [1]; [3]
  pIC50: 5.49
PEG-3 [1]; [4]
  pIC50: < 4.00
PEG-3 [2]
  IC50: inactive

## COc1ccc(C(c2nnnn2-c2c(C)cccc2C)N2CCC(n3c(=O)[nH]c4ccccc43)CC2)cc1 (centres undefined)
PEG-3 [1]; [3]
  pIC50: 4.94
PEG-3 [1]; [4]
  pIC50: 4.95
PEG-3 [2]
  pIC50: 4.95

## Cc1ccc(NC(=O)Nc2ccnc(-c3cccnc3)n2)cc1
PEG-3 [1]; [3]
  pIC50: < 4.00
PEG-3 [1]; [4]
  pIC50: < 4.00
PEG-3 [2]
  IC50: > 100 µM (inactive)

## O=C1N[C@@H](c2ccccc2)COC(=O)[C@@H](Cc2ccc(F)cc2)CC/C=C/C[C@H]1CC(=O)N(CCO)Cc1ccccc1
PEG-3 [1]; [3]
  pIC50: 4.39
PEG-3 [1]; [4]
  pIC50: < 4.00
PEG-3 [2]
  IC50: inactive

## COc1ccc(C2c3c(ncn(CCCN4CCOCC4)c3=N)Oc3ccc4ccccc4c32)cc1OC (centres undefined)
PEG-3 [1]; [3]
  pIC50: 4.68
PEG-3 [1]; [4]
  pIC50: 4.78
PEG-3 [2]
  pIC50: 4.73

## COc1ccc2c(c1OC)C(=O)N1c3ccccc3C(=O)N(c3ccccc3F)C21 (centres undefined)
PEG-3 [1]; [3]
  pIC50: 4.82
PEG-3 [1]; [4]
  pIC50: 4.93
PEG-3 [2]
  pIC50: 4.87

## O=C(/C=C/c1ccccc1)NC(NC(=S)Nc1cccc(Cl)c1)C(Cl)(Cl)Cl (centres undefined)
PEG-3 [1]; [3]
  pIC50: 4.74
PEG-3 [1]; [4]
  pIC50: 4.97
PEG-3 [2]
  pIC50: 4.84

## O=Cc1cn(Cc2ccc(F)cc2)c2ccccc12
PEG-3 [1]; [3]
  pIC50: 4.90
PEG-3 [1]; [4]
  pIC50: 4.62
PEG-3 [2]
  pIC50: 4.74

## C/C(=N\N=C(N)N)c1ccc(Cl)c(Cl)c1
PEG-3 [1]; [3]
  pIC50: 4.69
PEG-3 [1]; [4]
  pIC50: 4.77
PEG-3 [2]
  pIC50: 4.73

## O=S(=O)(c1cccs1)N1CCN(c2ccnc3cc(Cl)ccc23)CC1
PEG-3 [1]; [3]
  pIC50: 4.93
PEG-3 [1]; [4]
  pIC50: 4.64
PEG-3 [2]
  pIC50: 4.76
